Data published in patent US4430331A, “Antiarrhytmic benzylimidazole” (Shionogi & Co., Ltd., priority 1981, dated 1984).

Assays:
atrium dextrum specimens = experiment: Antiarrhythmic activity (cardiomuscular action to the maximal stimulus frequency); set-up: species or system guinea-pigs; settings: isolated guinea-pig atrium dextrum, Krebs-Ringer-sodium carbonate solution, 30° C., after 10 minutes treatment with test compound
Protocol: (a) Antiarrhythmic activity (cardiomuscular action to the maximal stimulus frequency) A certain number of atrium dextrum specimens were made by extracting the heart from male and female guinea-pigs weighing on average 350 to 600 g, and then suspended and fixed in a glass vessel filled with Krebs-Ringer-sodium carbonate solution (30° C.) in which a mixture of 95% oxygen and 5% carbon dioxide was continuously introduced. The automatism of the specimens was recorded on the oscillograph. Maximal stimulus frequency was confirmed by affording a stimulus of the atrium dextrum from the exciting electrode equipped to a retainer. After previously treating with a test compound for 10 minutes, the reducing percent (%) of the maximal stimulus frequency was calculated by observing the reduction of the maximal frequency [[…].: Brit. […]., 1, 90 (1946)].

SLC-DDY male mice = experiment: in vivo; format: in vivo; settings: LD50, up and down method, into tail venae (intravenous), SLC-DDY male mice 25 to 35 g
From the text: (§1) Lethal dose was obtained by administering a test compound in the form of a physiological brine solution into the tail venae of SLC-DDY male mice weighing from 25 to 35 g and calculating the value of LD50 by the up and down method [Brownlee, K. A. et al.: J. Am. Stat. As., 48, 262 (1953)].

in vivo = format: in vivo; settings: mouse, in vivo; LD50, up and down method, into tail venae (intravenous), SLC-DDY male mice 25 to 35 g; read-out: Acute toxicity (LD50)
From the text: as §1

| SMILES | Reducing percent (%) of Maximal stimulus frequency (atrium dextrum specimens) | Acute toxicity (LD50) (SLC-DDY male mice) | LD50 (in vivo) |
| --- | --- | --- | --- |
| C=C(c1c(Cl)ccc(Cl)c1OCC(O)CNCC(C)C)n1ccnc1 (stereo not shown) [Example 13] | 34.5% | 15.5 mg/kg |  |
| C=C(c1ccccc1OCC(O)CNC(C)C)n1cncn1 (stereo not shown) [Example 31] | 42.8% | 36.4 mg/kg |  |
| C=C(c1ccc(Cl)c(Cl)c1OCC(O)CNC(C)C)n1ccnc1 (stereo not shown) [Example 26] | 35.8% | 33.9 mg/kg |  |
| C=C(c1c(C)ccc(Cl)c1OCC(O)CNC(C)C)n1ccnc1 (stereo not shown) [Example 30] | 50.6% | 28.5 mg/kg |  |
| C=C(c1ccccc1OCC(O)CNC(C)C)n1cnc(C(=O)OCC)c1C (stereo not shown) [Example 17] | 31.7% |  | 36.4 mg/kg |
| C=C(c1ccccc1OCC(O)CNC(C)(C)C)n1cccn1 (stereo not shown) [Example 25] | 39.2% | 22.3 mg/kg |  |
| C=C[C@H]1C[N@@]2CC[C@H]1C[C@@H]2[C@@H](O)c1ccnc2ccc(OC)cc12 [Quinidine, reference compound] | 22.8% |  |  |
| C=C(c1ccccc1OCC(O)CNC(C)(C)C)n1cnc2ccccc21 (stereo not shown) [Example 22] | 35.8% | 26.5 mg/kg |  |
| C=C(c1c(Cl)ccc(Cl)c1OCC(O)CNC(C)C)n1ccnc1 (stereo not shown) [Example 7] | 38.1% | 19.8 mg/kg |  |
| C=C(c1ccccc1OCC(O)CNC(C)C)n1cnc(C)c1 (stereo not shown) [Example 24] | 36.1% | 36.4 mg/kg |  |
